Test systems include CAKI-1 renal; HOP-92 NSCLC; HT29 colon; LOX IMVI melanoma; NCI-H522 lung; SF-295 CNS; SF-539 CNS; U251 CNS; UACC-257 melanoma; UACC-62 melanoma.
What all share (experiment): NCI-60 cell line screen, 48 h

Values joined by “and” are separate entries in the source; they are usually repeats but may differ in a detail not shown here. Identical values can stand only once.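 Exposure lasted 48 hours, with cells grown in 96-well plates and compounds tested at five concentrations. GI50 marks 50% less growth. Definition used: TGI = concentration required for complete inhibition of growth.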 A value given as a limit tells only on which side of the number the result lay.

With `Cn1c2ccc3cc2c(=S)c2cc(ccc21)OCCOCCOCCOCCOCCOCCO3`, the TGI with CAKI-1 renal, with HOP-92 NSCLC, with HT29 colon, in the assay with LOX IMVI melanoma, with NCI-H522 lung and with SF-295 CNS was greater than 10 µM each time. In addition, the TGI in the assay on SF-539 CNS, in the assay with U251 CNS and with UACC-257 melanoma was greater than 10 µM each time.
Regarding `Cc1cc(-c2nc3ccc(F)cc3s2)ccc1NC(=O)[C@H](C)N`, the TGI in the assay on CAKI-1 renal was determined as 22.1 µM; in the assay with HOP-92 NSCLC it was 24.7 µM; with HT29 colon it was 8.38 µM; in the assay on LOX IMVI melanoma, 3.99 µM; in the assay with NCI-H522 lung, 20.7 µM; in the assay with SF-295 CNS, 24.7 µM. For the same compound, the TGI in the assay with SF-539 CNS came out at 14.9 µM; in the assay on U251 CNS, 9.06 µM; in the assay on UACC-257 melanoma it was 11.8 µM; with UACC-62 melanoma it was 3.6 µM.
In the case of `Cc1ccccc1OC(C)C(=O)NN1C(=O)CSC1c1ccccc1` (centres undefined), the TGI in the assay with CAKI-1 renal, with HOP-92 NSCLC, in the assay on HT29 colon, in the assay on LOX IMVI melanoma, in the assay on NCI-H522 lung and in the assay on SF-295 CNS was greater than 100 µM in each case. In addition, the TGI in the assay on SF-539 CNS, with U251 CNS, in the assay with UACC-257 melanoma and in the assay with UACC-62 melanoma was greater than 100 µM throughout.
In the case of `Nc1nc(SCCC/C=C/I)nc2c1ncn2C1OC(COP(=O)(O)O)C(O)C1O` (centres undefined), the TGI in the assay with HOP-92 NSCLC, in the assay on HT29 colon, with LOX IMVI melanoma, in the assay with NCI-H522 lung, in the assay with SF-295 CNS and in the assay on SF-539 CNS was greater than 100 µM throughout. For the same compound, the TGI in the assay on U251 CNS, in the assay on UACC-257 melanoma and in the assay on UACC-62 melanoma was greater than 100 µM each time.
As to `Nc1c(-c2ccc(Cl)c(Cl)c2)c2ccc([N+](=O)[O-])cc2c(=O)n1-c1nc2ccccc2s1`, the TGI is greater than 39.7 µM in the assay with CAKI-1 renal; 2.81 µM in the assay on HOP-92 NSCLC; greater than 34.2 µM with HT29 colon; 27.3 µM in the assay on LOX IMVI melanoma; 3.02 µM in the assay with NCI-H522 lung; 20.4 µM with SF-295 CNS. For the same compound, the TGI is 16.3 µM with SF-539 CNS, greater than 34.1 µM in the assay with U251 CNS, greater than 100 µM in the assay with UACC-257 melanoma and greater than 100 µM in the assay on UACC-62 melanoma.
As for `C(=C(c1ccc(OC2CCCCO2)cc1)c1ccc(OC2CCCCO2)cc1)c1ccccc1` (centres undefined), the TGI in the assay with CAKI-1 renal was 1.92 µM; with HOP-92 NSCLC, 1.96 µM; in the assay on HT29 colon it was 1.28 µM; in the assay with LOX IMVI melanoma, 1.14 µM; with NCI-H522 lung, 2.4 µM; with SF-295 CNS it was 2.51 µM. Also, the TGI was 3.24 µM with SF-539 CNS, 2.34 µM in the assay with U251 CNS, 1.66 µM with UACC-257 melanoma and 1.98 µM in the assay with UACC-62 melanoma.
Turning to `O=C1C=C[C@@H](COC2OC(CO)C(O)C(O)C2O)O1` (some centres undefined), the TGI in the assay with CAKI-1 renal was 40 µM; in the assay on HOP-92 NSCLC it was 30.3 µM and 36 µM; with HT29 colon it was 5.69 µM and 19.2 µM; in the assay with LOX IMVI melanoma, 15.8 µM and 16.4 µM; with NCI-H522 lung, 5.61 µM and 18.4 µM; in the assay with SF-295 CNS it was 41.8 µM and 45 µM. The TGI with SF-539 CNS was 17.6 µM and 18.4 µM; in the assay with U251 CNS it was 31 µM and 30.9 µM; in the assay on UACC-257 melanoma, 22.8 µM and 27.7 µM; in the assay with UACC-62 melanoma it was 12 µM and 22.6 µM. Also, the GI50 in the assay on HOP-92 NSCLC is 14.3 µM; in the assay on HT29 colon it was 1.62 µM; in the assay on NCI-H522 lung, 2.22 µM; in the assay on UACC-257 melanoma it was 10.2 µM; in the assay with UACC-62 melanoma, 3.03 µM.
For the compound `Oc1ccccc1CNCc1nc2ccccc2[nH]1`, the TGI in the assay on CAKI-1 renal, in the assay on HOP-92 NSCLC, in the assay with HT29 colon, with LOX IMVI melanoma, in the assay on NCI-H522 lung and in the assay on SF-295 CNS was greater than 100 µM each time. The TGI in the assay on SF-539 CNS, with U251 CNS, with UACC-257 melanoma and in the assay with UACC-62 melanoma was greater than 100 µM in each case.
As for `Cn1c(=O)c2c(nc3n2CC(C(=O)O)N3)n(C)c1=O` (centres undefined), the TGI with CAKI-1 renal, in the assay on HOP-92 NSCLC, in the assay with HT29 colon, with LOX IMVI melanoma, with NCI-H522 lung and with SF-295 CNS was greater than 100 µM each time. Also, the TGI in the assay on SF-539 CNS, with U251 CNS, in the assay with UACC-257 melanoma and in the assay on UACC-62 melanoma was greater than 100 µM each time.
On to `C=C1CCN2CC[C@@H](OC(=O)/C(C)=C\C)[C@@H]12`, for which the TGI with CAKI-1 renal, with HOP-92 NSCLC, with HT29 colon, in the assay with LOX IMVI melanoma, in the assay with NCI-H522 lung and in the assay on SF-295 CNS was greater than 100 µM in each case. The TGI in the assay on SF-539 CNS, in the assay with U251 CNS, with UACC-257 melanoma and with UACC-62 melanoma was greater than 100 µM in each case.
`Nc1nccc(-c2c[nH]c3cc(Br)ccc23)n1`: the TGI was 35 µM with CAKI-1 renal; 63.8 µM with HOP-92 NSCLC; 44.7 µM in the assay with HT29 colon; 53.4 µM in the assay on LOX IMVI melanoma; 38.4 µM with NCI-H522 lung; greater than 100 µM with SF-295 CNS. Also, the TGI in the assay on SF-539 CNS is greater than 100 µM; in the assay on U251 CNS, greater than 100 µM; with UACC-257 melanoma, 86.7 µM; in the assay with UACC-62 melanoma, 47.6 µM.
In the case of `O=C(c1ccccn1)C1(N2CCCCC2)CCCCC1`, the TGI in the assay with CAKI-1 renal is greater than 100 µM; in the assay on HOP-92 NSCLC, 64.9 µM; in the assay with HT29 colon, greater than 100 µM; in the assay on LOX IMVI melanoma it was greater than 100 µM; in the assay on NCI-H522 lung it was 37 µM; in the assay with SF-295 CNS, greater than 100 µM. Further, the TGI in the assay with SF-539 CNS, in the assay with U251 CNS, in the assay on UACC-257 melanoma and with UACC-62 melanoma was greater than 100 µM each time.
Regarding `Nc1nc2c(c(-c3cccc(Cl)c3)n1)COC/C2=C\c1cccc(Cl)c1`, the TGI in the assay on CAKI-1 renal, in the assay with HOP-92 NSCLC, in the assay on HT29 colon, in the assay with LOX IMVI melanoma, in the assay on NCI-H522 lung and in the assay on SF-295 CNS was greater than 100 µM in each case. For the same compound, the TGI in the assay with SF-539 CNS, in the assay on U251 CNS, in the assay on UACC-257 melanoma and in the assay with UACC-62 melanoma was greater than 100 µM throughout.
Take `Nc1c(S(=O)(=O)O)cc2cc(S(=O)(=O)O)ccc2c1N=Nc1ccc(-c2ccc(N=Nc3c(N)c(S(=O)(=O)O)cc4cc(S(=O)(=O)O)ccc34)c(S(=O)(=O)O)c2)cc1`: the TGI in the assay with HOP-92 NSCLC, in the assay with HT29 colon, in the assay on LOX IMVI melanoma, in the assay on NCI-H522 lung, with SF-295 CNS and with SF-539 CNS was greater than 100 µM each time. For the same compound, the TGI with U251 CNS, in the assay with UACC-257 melanoma and with UACC-62 melanoma was greater than 100 µM in each case.
`COc1ccc(/C=c2\sc3n(c2=O)CCN=3)cc1`: the TGI is 95.8 µM in the assay with HOP-92 NSCLC; greater than 100 µM in the assay with HT29 colon; greater than 100 µM in the assay with LOX IMVI melanoma; greater than 100 µM in the assay with NCI-H522 lung; greater than 100 µM in the assay on SF-295 CNS; greater than 100 µM in the assay on SF-539 CNS. Besides, the TGI in the assay with U251 CNS, in the assay with UACC-257 melanoma and in the assay with UACC-62 melanoma was greater than 100 µM in each case.
In the case of `O=C(N/N=C/c1ccc(Cl)cc1)c1c(Cl)c(Cl)c(Cl)c(Cl)c1-c1nc2ccccc2[nH]1`, the TGI in the assay with CAKI-1 renal, in the assay on HOP-92 NSCLC, with HT29 colon, in the assay with LOX IMVI melanoma, with NCI-H522 lung and in the assay with SF-295 CNS was greater than 100 µM in each case. The TGI in the assay on SF-539 CNS and with UACC-62 melanoma was greater than 100 µM each time.
For the compound `O=C1CCCCC1CN1CCCCC1` (centres undefined), the TGI in the assay with CAKI-1 renal was greater than 100 µM; in the assay on HOP-92 NSCLC, greater than 100 µM; with HT29 colon, greater than 100 µM; in the assay with LOX IMVI melanoma it was greater than 100 µM; in the assay on NCI-H522 lung it was 4.42 µM; in the assay on SF-295 CNS it was greater than 100 µM. Besides, the TGI with SF-539 CNS, with U251 CNS and with UACC-62 melanoma was greater than 100 µM in each case.
Turning to `O=C(C1OC1c1ccc(Br)cc1O)C12CC3CC(CC(C3)C1)C2` (centres undefined), the TGI is 48.8 µM with HOP-92 NSCLC; greater than 100 µM in the assay with HT29 colon; 28.7 µM with LOX IMVI melanoma; 45.2 µM in the assay with NCI-H522 lung; 43 µM in the assay on SF-295 CNS; greater than 100 µM in the assay on SF-539 CNS. Also, the TGI was 30.8 µM with U251 CNS, greater than 100 µM in the assay on UACC-257 melanoma and 40.6 µM with UACC-62 melanoma.
Consider `C#CCn1c(=O)c2ccccc2n(CC#C)c1=O`, for which the TGI in the assay with CAKI-1 renal, with HOP-92 NSCLC, with HT29 colon, in the assay on LOX IMVI melanoma, in the assay with NCI-H522 lung and with SF-295 CNS was greater than 10 µM in each case. In addition, the TGI in the assay with SF-539 CNS, with U251 CNS and in the assay on UACC-257 melanoma was greater than 10 µM each time.
For the compound `COc1ncc(/C=C2\OC(=O)c3ccccc32)c(OC)n1`, the TGI is 36.8 µM in the assay on CAKI-1 renal; greater than 100 µM in the assay on HOP-92 NSCLC; greater than 100 µM in the assay with HT29 colon; greater than 100 µM with LOX IMVI melanoma; greater than 100 µM with NCI-H522 lung; greater than 100 µM with SF-295 CNS. For the same compound, the TGI with SF-539 CNS, in the assay with U251 CNS and in the assay with UACC-257 melanoma was greater than 100 µM throughout.
On to `CCC(=O)NC(Nc1cc(C)on1)(C(F)(F)F)C(F)(F)F`, for which the TGI in the assay on CAKI-1 renal, in the assay on HOP-92 NSCLC, with HT29 colon, in the assay on LOX IMVI melanoma, in the assay with NCI-H522 lung and in the assay on SF-539 CNS was greater than 100 µM each time. Besides, the TGI with U251 CNS, in the assay on UACC-257 melanoma and with UACC-62 melanoma was greater than 100 µM in each case.

These data come from PubChem BioAssay (NCI).
